According to patent US7807690B2, “2,3-dihydro-iminoisoindole derivatives” (Eisai R&D Management Co., Ltd., priority 2007, dated 2010):
Counter-ions that a name gives are not always drawn.

target: T1, human clotting factor VIIa (Homo sapiens, UniProt P08709); test: Inhibiting activity against clotting factor VIIa (chromogenic substrate Spectrozyme FVIIa, TF/Factor VIIa enzyme solution); type: biochemical; details: 10 nmol/L human TF, 5 nmol/L Factor VIIa, room temperature 40 minutes, 405 nm
T1 construct: a human clotting factor VIIa (hereinafter, “Factor VIIa”) purified sample; purchased Enzyme Research Laboratories HFVIIa
T1 sequence (P08709 213-466 limits assumed): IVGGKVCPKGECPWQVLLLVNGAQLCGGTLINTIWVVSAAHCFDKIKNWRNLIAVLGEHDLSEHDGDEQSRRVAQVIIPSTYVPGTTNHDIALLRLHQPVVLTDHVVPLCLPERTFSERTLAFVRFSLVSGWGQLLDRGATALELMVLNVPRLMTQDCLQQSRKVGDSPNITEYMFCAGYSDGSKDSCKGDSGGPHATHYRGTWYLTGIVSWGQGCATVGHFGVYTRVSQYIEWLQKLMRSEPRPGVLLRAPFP
T1 sequence (P08709 61-212 limits assumed): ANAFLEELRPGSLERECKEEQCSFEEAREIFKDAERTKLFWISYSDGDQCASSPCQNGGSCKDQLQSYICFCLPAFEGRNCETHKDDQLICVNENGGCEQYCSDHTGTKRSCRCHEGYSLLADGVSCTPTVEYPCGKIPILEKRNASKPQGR
T1 sequence (P13726 33-295 partner): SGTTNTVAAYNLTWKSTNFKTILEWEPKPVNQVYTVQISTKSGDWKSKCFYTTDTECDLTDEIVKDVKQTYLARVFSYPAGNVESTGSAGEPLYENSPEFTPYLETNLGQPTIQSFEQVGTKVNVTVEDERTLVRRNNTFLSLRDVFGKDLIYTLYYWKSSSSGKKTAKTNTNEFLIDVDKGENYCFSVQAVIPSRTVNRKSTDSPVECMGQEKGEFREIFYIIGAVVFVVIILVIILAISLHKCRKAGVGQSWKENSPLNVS
Method: A dimethyl sulfoxide (DMSO) solution was prepared with an invention compound concentration of 10 mmol/L (10 mmol/L compound solution).
One packet of tris-hydroxymethylaminomethane-preset (hereinafter referred to as “Tris preset”)(Product of Sigma Corp., Catalog No. T8293), 8.8 g of sodium chloride (NaCl) and 1 g of bovine serum albumin (hereinafter abbreviated as “BSA”) were dissolved in 1 L of water to prepare a Tris-BSA buffer (100 mmol/L Tris, 0.15 mol/L NaCl, 0.1% BSA, pH 7.4).
The Tris-BSA buffering solution (180 μL) was added to the aforementioned 10 mmol/L compound solution (20 μL). The mixture was provided for a 10-fold dilution series using the aforementioned Tris-BSA buffering solution to prepare solutions with compound concentrations of 1.0 mmol/L, 100, 10, 1, 0.1, 0.01 and 0.001 μmol/L (1.0 mmol-0.001 μmol/L compound solutions).
As a control, a solution was prepared by 10-fold dilution of DMSO with the Tris-BSA buffer (hereinafter referred to as “control 10% solution”).
After dissolving one pack of Tris-Preset, NaCl (8.8 g) and BSA (1 g) in water (approximately 900 mL), a 1 mol/L calcium chloride (CaCl2) aqueous solution (15 mL) and a 1 mg/mL Cephalin aqueous solution (30 mL) were added, and water was added to a total volume of 1 L. To this solution there was added a human tissue factor (hereinafter, “TF”) sample (product of Calbiochem, Catalog No. 612151)(450 μg) to a TF sample concentration of 10 nmol/L, and then a human clotting factor VIIa (hereinafter, “Factor VIIa”) purified sample (product of Enzyme Research Laboratories, Catalog No. HFVIIa)(250 μg) was added to a Factor VIIa purified sample concentration of 5 nmol/L, to prepare an enzyme solution (100 mmol/L Tris-HCl, 0.15 mol/L NaCl, 15 mmol/L CaCl2, 30 μg/mL Cephalin, 1 mg/mL BSA, 10 nmol/L TF, 5 nmol/L Factor VIIa).
To 110 μL of this enzyme solution there was added 15 μL of each of the 1.0-mmol-0.001 μmol/L compound solutions, and then 25 μL of a 1.0 mmol/L synthetic chromogenic substrate solution (Spectrozyme FVIIa, product of American Diagnostica, Catalog No. 217L) was added and the mixture was allowed to stand at room temperature for 40 minutes. The amount of 4-nitroanilide released into the solution was quantified by spectrophotometry (405 nm).
A control […] was used in place of the compound solution for measurement in the same manner as a control.
The enzyme reaction inhibition was determined based on this measurement in the presence of the compounds of the invention from 100 μmol/L to 0.1 nmol/L. The IC50 value of each compound as an index of inhibiting activity against clotting factor VIIa was calculated based on nonlinear regression analysis of the enzyme reaction inhibition at each compound concentration.

SMILES	IC50
CCc1cc(OCCN(C)C)c(F)c(C(Nc2ccc3c(c2)CNC3=N)c2nn(-c3ccccc3N)c(=O)[nH]2)c1 (centres unmarked) [Example 8, 2-(2-Aminophenyl)-5-{[3-(2-dimethylaminoethoxy)-5-ethyl-2-fluorophenyl]-(1-imino-2,3-dihydro-1H-isoindol-5-ylamino)methyl}-2,4-dihydro-[1,2,4]triazol-3-one bistrifluoroacetate]	15 nM
COc1cc(OC)c(F)c(C(Nc2ccc3c(c2)CNC3=N)c2nn(-c3ccccc3[N+](=O)[O-])c(=O)[nH]2)c1 (centres unmarked) [Example 14, 5-[(2-Fluoro-3,5-dimethoxyphenyl)-(1-imino-2,3-dihydro-1H-isoindol-5-ylamino)methyl]-2-(2-nitrophenyl)-2,4-dihydro-[1,2,4]triazol-3-one trifluoroacetate]	13 nM
COc1cc(F)c(C(Nc2ccc3c(c2)CNC3=N)c2nn(-c3ccccc3C(=O)O)c(=O)[nH]2)cc1OC (centres unmarked) [Example 13, 2-{3-[(2-Fluoro-4,5-dimethoxyphenyl)-(1-imino-2,3-dihydro-1H-isoindol-5-ylamino)methyl]-5-oxo-4,5-dihydro-[1,2,4]triazol-1-yl}benzoic Acid Trifluoroacetate]	4 nM
COc1cc(F)c(C(Nc2ccc3c(c2)CNC3=N)c2nn(-c3ccccc3N)c(=O)[nH]2)cc1OC (single isomer, unassigned) [Example 10, acetate]	12 nM
CCc1cc(OCCO)c(F)c(C(Nc2ccc3c(c2)CNC3=N)c2nn(-c3ncccc3N)c(=O)[nH]2)c1 (single isomer, unassigned) [Example 16, Acetate]	3 nM
CCc1cc(OCCN(C)C)c(F)c(C(Nc2ccc3c(c2)CNC3=N)c2nn(-c3ncccn3)c(=O)[nH]2)c1 (centres unmarked) [Example 3, 5-{[3-(2-Dimethylaminoethoxy)-5-ethyl-2-fluorophenyl]-(1-imino-2,3-dihydro-1H-isoindol-5-ylamino)methyl}-2-pyrimidin-2-yl-2,4-dihydro-[1,2,4]triazol-3-one Bistrifluoroacetate]	25 nM
COc1cc(F)c(C(Nc2ccc3c(c2)CNC3=N)c2nn(-c3cccc[n+]3[O-])c(=O)[nH]2)cc1OC (centres unmarked) [Example 12, 5-[(2-Fluoro-4,5-dimethoxyphenyl)-(1-imino-2,3-dihydro-1H-isoindol-5-ylamino)methyl]-2-(1-oxypyridin-2-yl)-2,4-dihydro-[1,2,4]triazol-3-one]	163 nM
COc1cc(C(Nc2ccc3c(c2)CNC3=N)c2nn(-c3ncccn3)c(=O)[nH]2)cc2c1OCOC2 (single isomer, unassigned) [Example 5]	20 nM
CCc1cc(OCCO)c(F)c(C(Nc2ccc3c(c2)CNC3=N)c2nn(-c3ccsc3C(=O)O)c(=O)[nH]2)c1 (single isomer, unassigned) [Example 17]	2 nM
COc1cc(C(Nc2ccc3c(c2)CNC3=N)c2nn(-c3ncccc3N)c(=O)[nH]2)cc2c1OCOC2 (single isomer, unassigned) [Example 2, acetate]	13 nM
COc1cc(F)c(C(Nc2ccc3c(c2)CNC3=N)c2nn(-c3nc[nH]c3C(=O)O)c(=O)[nH]2)cc1OC (centres unmarked) [Example 9, 5-{3-[(2-Fluoro-4,5-dimethoxyphenyl)-(1-imino-2,3-dihydro-1H-isoindol-5-ylamino)methyl]-5-oxo-4,5-dihydro-[1,2,4]triazol-1-yl}-3H-imidazole-4-carboxylic Acid]	42 nM
COc1cc(C(Nc2ccc3c(c2)CNC3=N)c2nn(-c3ncsc3C(=O)O)c(=O)[nH]2)c(F)c2c1OCCC2 (single isomer, unassigned) [Example 1]	38 nM
COc1cc(C(Nc2ccc3c(c2)CNC3=N)c2nn(-c3ccsc3C(=O)O)c(=O)[nH]2)cc2c1OCOC2 (single isomer, unassigned) [Example 7]	3 nM
CCc1cc(OCCO)c(F)c(C(Nc2ccc3c(c2)CNC3=N)c2nn(-c3ncccn3)c(=O)[nH]2)c1 (centres unmarked) [Example 4, 5-{[5-Ethyl-2-fluoro-3-(2-hydroxyethoxy)phenyl]-(1-imino-2,3-dihydro-1H-isoindol-5-ylamino)methyl}-2-pyrimidin-2-yl-2,4-dihydro-[1,2,4]triazol-3-one]	14 nM
COc1cc(OCCO)c(F)c(C(Nc2ccc3c(c2)CNC3=N)c2nn(-c3ncoc3C(=O)O)c(=O)[nH]2)c1 (centres unmarked) [Example 11, 4-(3-{[2-Fluoro-3-(2-hydroxyethoxy)-5-methoxyphenyl]-(1-imino-2,3-dihydro-1H-isoindol-5-ylamino)methyl}-5-oxo-4,5-dihydro-[1,2,4]triazol-1-yl)oxazole-5-carboxylic acid]	242 nM
COc1cc(OCCO)c(F)c(C(Nc2ccc3c(c2)CNC3=N)c2nn(-c3ncsc3C(=O)O)c(=O)[nH]2)c1 (centres unmarked) [Example 6, 4-(3-{[2-Fluoro-3-(2-hydroxyethoxy)-5-methoxyphenyl]-(1-imino-2,3-dihydro-1H-isoindol-5-ylamino)methyl}-5-oxo-4,5-dihydro-[1,2,4]triazol-1-yl)thiazole-5-carboxylic Acid]	123 nM
COc1cc(F)c(C(Nc2ccc3c(c2)CNC3=N)c2nn(-c3n[nH]cc3C(=O)O)c(=O)[nH]2)cc1OC (centres unmarked) [Example 15, 3-{3-[(2-Fluoro-4,5-dimethoxyphenyl)-(1-imino-2,3-dihydro-1H-isoindol-5-ylamino)methyl]-5-oxo-4,5-dihydro-[1,2,4]triazol-1-yl}-1H-pyrazole-4-carboxylic Acid]	207 nM
